Type in all cases: functional
Test [1] deals with Candida albicans. The test is described as follows: Antimicrobial activity against Candida albicans ATCC 10231 assessed as inhibition of microbial growth incubated for 16 hrs by broth microdilution method.
Test [2] concerns Candida tropicalis. Kind of test: Antimicrobial activity against Candida tropicalis ATCC 1369 assessed as inhibition of microbial growth incubated for 16 hrs by broth microdilution method. For orientation: Broth dilution looks for growth in wells or tubes with falling amounts of substance.
The subject of test [3] is Klebsiella pneumoniae. Kind of test: Antimicrobial activity against Klebsiella pneumoniae ATCC 700603 assessed as inhibition of microbial growth incubated for 16 hrs by broth microdilution method.
The test system of test [4] is Escherichia coli. Kind of test: Antimicrobial activity against Escherichia coli ATCC 25922 assessed as inhibition of microbial growth incubated for 16 hrs by broth microdilution method.
For test [5], the system named is Pseudomonas aeruginosa. Kind of test: Antimicrobial activity against Pseudomonas aeruginosa ATCC 27853 assessed as inhibition of microbial growth incubated for 16 hrs by broth microdilution method.
Test [6] concerns Enterococcus faecium. Kind of test: Antimicrobial activity against Enterococcus faecium ATCC 35667 assessed as inhibition of microbial growth incubated for 16 hrs by broth microdilution method.
The test system of test [7] is Staphylococcus aureus. Kind of test: Antimicrobial activity against Staphylococcus aureus ATCC 29213 assessed as inhibition of microbial growth incubated for 16 hrs by broth microdilution method.
Test [8] deals with Enterococcus faecium. Kind of test: Antimicrobial activity against vancomycin resistant Enterococcus faecium 310682 assessed as inhibition of microbial growth incubated for 16 hrs by broth microdilution method.
The test system of test [9] is Staphylococcus aureus. The test is described as follows: Antimicrobial activity against methicillin resistant Staphylococcus aureus 181404 assessed as inhibition of microbial growth incubated for 16 hrs by broth microdilution method.
Test [10] has as its system Enterococcus faecium. The test is described as follows: Antibacterial activity against vancomycin resistant Enterococcus faecium 310682 infected in Galleria mellonella last-instar larvae assessed as survival at 0.20 mg/kg measured after 1 day (reference value: 30%). The following applies: Enterococcus faecium, 310682, 24 h.
The test system of test [11] is Enterococcus faecium. Kind of test: Antibacterial activity against vancomycin resistant Enterococcus faecium 310682 infected in Galleria mellonella last-instar larvae assessed as survival at 1 mg/kg measured after 1 day (reference value: 30%). To be noted: Enterococcus faecium, 310682, 24 h.
In test [12] the test system is Enterococcus faecium. Kind of test: Antibacterial activity against vancomycin resistant Enterococcus faecium 310682 infected in Galleria mellonella last-instar larvae assessed as survival at 10 mg/kg measured after 1 day (reference value: 30%). To be noted: Enterococcus faecium, 310682, 24 h.
In test [13] the test system is Enterococcus faecium. Kind of test: Antimicrobial activity against vancomycin resistant Enterococcus faecium 310682 assessed as inhibition of microbial growth incubated for 16 hrs in presence of quinupristin by broth microdilution method.
Test [14] concerns Enterococcus faecium. The test is described as follows: Antimicrobial activity against vancomycin resistant Enterococcus faecium 310682 assessed as inhibition of microbial growth incubated for 16 hrs in presence of dalfopristin by broth microdilution method.

Numbered stars: 1 amine (or outer) side, 2 acyl side, 3 side chain; on linkers, the order of the positions; unused ones are H or OH. Bridge positions count the residues as written; N and C are the ends. Square brackets hold non-standard residues; d marks the D form. Peptide text beside a SMILES is read from it. * marks the point of attachment. X1 = O=C1C[C@@H](C(=O)[*:2])N([*:1])C[C@H]1CS[C@@H]1CN2CCC1CC2; NMePhe(4-NMe2) = CN[C@@H](Cc1ccc(N(C)C)cc1)C(=O)O; Picolinoyl(3-OH) = O=C(c1ncccc1O)*; Phg = N[C@H](C(=O)O)c1ccccc1; dAbu = CC[C@@H](N)C(=O)O A value given as a limit tells only on which side of the number the result lay.

By MIC is commonly meant the smallest concentration in the dilution series that meets the test's criterion for growth inhibition. As for `C=C([C@H](C)O)[C@H]1C=C[C@H]2C[C@@H](C)C[C@@H](C)[C@H]2[C@@H]1/C(O)=C1\C(=O)[C@H]([C@@H](C)CC)N(C)C1=O`, the MIC is 128 µg/mL in test [1]; above 128 µg/mL in [2]; above 128 µg/mL in test [3]; above 128 µg/mL in [4]; above 128 µg/mL in [5]; 8 µg/mL in [6]. Further, the MIC in test [7], in [8] and in test [9] was 2 µg/mL in each case.

As for `CC[C@H](C)[C@@H]1N(C)C(=O)[C@H]2C(=O)[C@H]3[C@@H]4[C@H](C)C[C@H](C)C[C@@H]4C=C[C@@H]3[C@@]3(C)O[C@]21O[C@H]3C`, the MIC in test [1] is above 128 µg/mL; in test [2], above 128 µg/mL; in test [3], above 128 µg/mL; in test [4], above 128 µg/mL; in test [5], above 128 µg/mL; in test [6] it was 64 µg/mL. For the same compound, the MIC in test [7] was determined as 64 µg/mL; in [8], 16 µg/mL; in test [9], 16 µg/mL.

In the case of `CC[C@H](C)[C@H]1C(=O)/C(=C(/O)[C@H]2[C@@H]3[C@H](C)C[C@H](C)C[C@@H]3C=C[C@@H]2[C@]2(C)O[C@H]2C)C(=O)N1C`, the minimal inhibitory concentration (MIC) was 8 µg/mL in [1]; above 128 µg/mL in test [2]; above 128 µg/mL in test [3]; above 128 µg/mL in test [4]; above 128 µg/mL in test [5]; 1 µg/mL in [6]. Also, the minimum inhibitory concentration (MIC) in test [7] was 0.25 µg/mL; in test [8], 0.25 µg/mL; in test [9], 0.5 µg/mL. In addition, the survival at 0.2 mg/kg in test [10] was 0%. The survival at 1 mg/kg in [11] was 40%. Moreover, the survival at 10 mg/kg in [12] came to 100%.

As for `CCN(CC)CCS(=O)(=O)[C@@H]1CCN2C(=O)c3coc(n3)CC(=O)C[C@H](O)/C=C(C)/C=C/CNC(=O)/C=C/[C@@H](C)[C@@H](C(C)C)OC(=O)[C@@H]12` [DALFOPRISTIN], the MIC in [13] worked out at 0.5 µg/mL.

Turning to `OC(Cn1cncn1)(Cn1cncn1)c1ccc(F)cc1F` [FLUCONAZOLE], the minimal inhibitory concentration (MIC) came to 8 µg/mL in test [1] and 2 µg/mL in test [2].

As to `C[C@@H](O)[C@H]1C(=O)N2C(C(=O)O)=C(S[C@@H]3CN[C@H](C(=O)N(C)C)C3)[C@H](C)[C@H]12` [MEROPENEM], the minimal inhibitory concentration (MIC) in [3] is 2 µg/mL; in test [4] it was 0.5 µg/mL; in [5], 16 µg/mL; in test [6], above 16 µg/mL; in test [7], 2 µg/mL; in test [8] it was above 16 µg/mL. Further, the minimum inhibitory concentration (MIC) in test [9] was above 16 µg/mL.

For `CC[C@H]1NC(=O)[C@@H](NC(=O)c2ncccc2O)[C@@H](C)OC(=O)[C@H](c2ccccc2)NC(=O)[C@@H]2CC(=O)[C@H](CS[C@@H]3CN4CCC3CC4)CN2C(=O)[C@H](Cc2ccc(N(C)C)cc2)N(C)C(=O)[C@@H]2CCCN2C1=O` [QUINUPRISTIN] ({Picolinoyl(3-OH)}-T[dAbu]P[NMePhe(4-NMe2)][X1][Phg]; ester 1-C), the MIC in test [14] was determined as 0.5 µg/mL.

Consider `CN[C@H](CC(C)C)C(=O)N[C@H]1C(=O)N[C@@H](CC(N)=O)C(=O)N[C@H]2C(=O)N[C@H]3C(=O)N[C@H](C(=O)N[C@H](C(=O)O)c4cc(O)cc(O)c4-c4cc3ccc4O)[C@H](O)c3ccc(c(Cl)c3)Oc3cc2cc(c3O[C@@H]2O[C@H](CO)[C@@H](O)[C@H](O)[C@H]2O[C@H]2C[C@](C)(N)[C@H](O)[C@H](C)O2)Oc2ccc(cc2Cl)[C@H]1O` [VANCOMYCIN], for which the minimal inhibitory concentration (MIC) in test [8] was above 16 µg/mL; in test [9], 0.25 µg/mL.

(Values after ChEMBL document CHEMBL5532705, “Bioactivity-Based Molecular Networking-Guided Isolation of Epicolidines A-C from the Endophytic Fungus Epicoccum sp. 1-042” (2024).)
